Like-named read-outs stand apart in the source and are kept apart here.

The target in assay [1] is T1, Aurora A (Homo sapiens, UniProt O14965).
T1 construct: histidine tag (N); made in house; host or cells: Escherichia coli BL21-CodonPlus(DE3)-RIL
T1 sequence (O14965 1-403): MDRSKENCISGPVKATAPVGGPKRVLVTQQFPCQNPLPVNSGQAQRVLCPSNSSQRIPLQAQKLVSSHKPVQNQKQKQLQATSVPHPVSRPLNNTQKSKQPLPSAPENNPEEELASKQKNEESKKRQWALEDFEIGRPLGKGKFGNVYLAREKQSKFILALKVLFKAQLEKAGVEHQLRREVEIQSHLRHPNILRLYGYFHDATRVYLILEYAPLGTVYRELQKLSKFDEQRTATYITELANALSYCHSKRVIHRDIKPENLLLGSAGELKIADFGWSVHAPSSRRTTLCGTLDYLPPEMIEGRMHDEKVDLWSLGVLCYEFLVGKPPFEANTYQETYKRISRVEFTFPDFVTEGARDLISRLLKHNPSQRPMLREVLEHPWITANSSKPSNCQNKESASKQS
The experiment in a line: Aurora A inhibitory action (33P-ATP kinase assay, Kemptide substrate). It counts as biochemical. On the procedure:
The Escherichia coli cells were recovered and solubilized, and then the histidine-tagged Aurora A protein was adsorbed onto a nickel chelate column and eluted from the column with imidazole. The active fraction was desalted with a desalting column to give a pure enzyme.
Then, 10 μL of 350 mM phosphate buffer was added to the reaction system to stop the reaction. The substrate peptide was adsorbed on a P81 paper filter 96-well plate and then washed with 130 mM phosphate buffer for several times. The radiation activity of the peptide was measured with a liquid scintillation counter. The [γ-^33P] labeled ATP was purchased from Amersham Biosciences Co., Ltd.

For assay [2], the target named is T2, Aurora B (Homo sapiens, UniProt Q96GD4).
T2 construct: histidine tag (N); made in house; host or cells: Escherichia coli BL21-CodonPlus(DE3)-RIL
The experiment in a line: Aurora B inhibitory action (33P-ATP kinase assay, Kemptide substrate). It counts as biochemical. As to conditions: 100 μM unlabeled ATP, 100 μM substrate peptide, 30° C. for 20 minutes. The source says: Aurora B Inhibitory Action
(1) Purification of Aurora B
cDNA of Aurora B having histidine tag fused at the amino terminal was integrated into an expression vector, which was then highly expressed in Escherichia coli BL21-CodonPlus(DE3)-RIL cells. The Escherichia coli cells were recovered and solubilized, and then the histidine-tagged […] protein was adsorbed onto a nickel chelate column and eluted from the column with imidazole. The active fraction was desalted with a desalting column to give a pure enzyme.
(2) Measurement of activity of Aurora B
For measurement of the activity of Aurora B, the substrate used was Kemptide (Leu-Arg-Arg-Ala-Ser-Leu-Gly) (SEQ. ID. NO.: 1), a synthetic peptide purchased from Sigma-Aldrich, Inc. [Certificate of analysis (Upstate, Inc.)].
Reaction was conducted by a partial modification of the method of activity measurement for Aurora A. The amount of the reaction liquid was 21.1 μL, and the composition of the reaction buffer (R2 buffer) was 50 mM Tris-hydrochloride buffer (pH 7.4)/15 mM magnesium acetate/0.2 mM ethylenediamine-N,N,N′,N′-tetraacetate (EDTA). To this, purified Aurora B, 100 μM of a substrate peptide, 100 μM of unlabeled adenosine triphosphate (ATP) and 1 μCi of [γ-^33P] labeled ATP (2,500 Ci/mmole or more) were added, and the mixture was reacted at 30° C. for 20 minutes. Then, 10 μL of 350 mM phosphate buffer was added to the reaction system to stop the reaction. The substrate peptide was adsorbed on a P81 paper filter 96-well plate and then washed with 130 mM phosphate buffer for several times. The radiation activity of the peptide was measured with a liquid scintillation counter. The [γ-^33P] labeled ATP was purchased from Amersham Biosciences Co., Ltd.

[3] abbreviates: 20 μM unlabeled ATP, 100 μM substrate peptide, 30° C. for 20 minutes, read-out: Inhibitory activity for Aurora A (IC50).

T2 sequence (Q96GD4 whole entry): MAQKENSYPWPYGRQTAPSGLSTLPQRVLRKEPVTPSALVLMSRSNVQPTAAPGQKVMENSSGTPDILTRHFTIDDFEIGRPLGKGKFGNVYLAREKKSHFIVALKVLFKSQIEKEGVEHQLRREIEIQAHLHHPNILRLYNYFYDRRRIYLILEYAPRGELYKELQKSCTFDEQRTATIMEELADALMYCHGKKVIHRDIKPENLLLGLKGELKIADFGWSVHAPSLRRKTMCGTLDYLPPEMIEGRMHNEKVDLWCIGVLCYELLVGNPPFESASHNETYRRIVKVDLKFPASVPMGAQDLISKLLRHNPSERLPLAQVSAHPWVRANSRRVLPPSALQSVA

As to `CO[C@@]12CCN(C(=O)O[C@@H](C)C(F)(F)F)[C@@H]1CN(c1nc(C)cc(Nc3cc[nH]n3)n1)C2` [Example 1, (2S)-1,1,1-trifluoropropan-2-yl (3aR,6aR)-3a-metboxy-5-[4-methyl-6-(1H-pyrazol-3-ylamino)pyrimidin-2-yl]hexahydropyrrolo[3,4-b]pyrrole-1(2H)-carboxylate], the IC50 in assay [1] came to 2.3 nM; in assay [2], 730 nM.
`Cc1cc(Nc2cc[nH]n2)nc(N2C[C@@H]3[C@@H](C2)OCCN3C(=O)O[C@@H](C)C(F)(F)F)n1` [Example 2, (2S)-1,1,1-trifluoropropan-2-yl (4aR,7aR)-6-[4-methyl-6-(1H-pyrazol-3-ylamino)pyrimidin-2-yl]hexahydropyrrolo[3,4-b][1,4]oxazine-4(4aH)-carboxylate]: the IC50 in assay [1] (setting [3]) was 1.3 nM; in assay [2], 85 nM.
In the same order, the values of `Cc1cc(Nc2cc[nH]n2)nc(N2C[C@@H]3[C@@H](C2)OCCN3C(=O)OC(C)(C)C(F)(F)F)n1` [Example 3, 1,1,1-trifluoro-2-methylpropan-2-yl (4aR,7aR)-6-[4-methyl-6-(1H-pyrazol-3-ylamino)pyrimidin-2-yl]hexahydropyrrolo[3,4-b][1,4]oxazine-4(4aH)-carboxylate] are 5.4 nM and 870 nM.

The record behind these values is patent US8263632B2, “Aminopyridine derivatives having Aurora A selective inhibitory action” (Vertex Pharmaceuticals Incoporated, priority 2009, dated 2012).
